Values quoted from earlier work as cited in patent US20060233841A1, “Implantable gel compositions and method of manufacture” (priority 1999, published 2006).

Details: reported value; solubility values considered to be determined at 20° C.

- solubility in water: 7.17 grams in 100 ml of water
SMILES: CC(=O)OCC(COC(C)=O)OC(C)=O [triacetin]
